Here are results for 42 molecules from ChEMBL document CHEMBL4118239, “Novel leucine ureido derivatives as aminopeptidase N inhibitors using click chemistry” (Bioorg Med Chem, 2018).

Data set [1] concerns the target T1, Aminopeptidase N (Sus scrofa, UniProt P15145).
T1 sequence (P15145 whole entry): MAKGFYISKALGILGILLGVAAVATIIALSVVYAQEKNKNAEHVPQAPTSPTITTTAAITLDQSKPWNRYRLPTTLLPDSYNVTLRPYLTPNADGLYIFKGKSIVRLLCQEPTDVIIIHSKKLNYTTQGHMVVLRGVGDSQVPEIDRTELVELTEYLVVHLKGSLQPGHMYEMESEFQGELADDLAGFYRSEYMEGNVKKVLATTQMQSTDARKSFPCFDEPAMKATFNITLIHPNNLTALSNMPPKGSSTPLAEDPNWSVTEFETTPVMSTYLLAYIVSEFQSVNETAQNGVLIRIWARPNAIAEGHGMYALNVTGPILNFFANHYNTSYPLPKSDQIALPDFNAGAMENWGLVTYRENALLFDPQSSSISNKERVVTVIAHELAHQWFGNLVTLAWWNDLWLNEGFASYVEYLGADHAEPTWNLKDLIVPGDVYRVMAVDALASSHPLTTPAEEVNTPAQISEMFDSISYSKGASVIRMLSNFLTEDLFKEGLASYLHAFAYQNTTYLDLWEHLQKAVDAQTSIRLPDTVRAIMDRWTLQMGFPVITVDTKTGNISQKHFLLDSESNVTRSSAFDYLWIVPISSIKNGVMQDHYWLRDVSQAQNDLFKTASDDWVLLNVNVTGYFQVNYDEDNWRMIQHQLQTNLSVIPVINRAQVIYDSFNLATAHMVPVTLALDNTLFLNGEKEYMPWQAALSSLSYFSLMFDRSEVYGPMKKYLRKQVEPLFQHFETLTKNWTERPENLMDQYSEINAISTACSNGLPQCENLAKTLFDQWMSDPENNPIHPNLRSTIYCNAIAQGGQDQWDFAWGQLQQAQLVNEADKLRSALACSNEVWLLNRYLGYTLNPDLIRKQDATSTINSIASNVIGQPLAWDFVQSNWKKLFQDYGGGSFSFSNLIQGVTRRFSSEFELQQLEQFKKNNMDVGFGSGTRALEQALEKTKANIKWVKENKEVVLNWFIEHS
The experiment in a line: Inhibition of APN in porcine kidney microsomes using L-Leu-pnitroanilide as substrate pretreated for 5 mins followed by substrate addition measured after 30 mins.

For data set [2], the target named is T2, Aminopeptidase N (Homo sapiens, UniProt P15144). Kind of data set: Inhibition of APN in human ES2 cells using L-Leu-pnitroanilide as substrate pretreated for 5 mins followed by substrate addition measured after 1 hr. The class given is cell-based.
Data set [3] concerns the target T2, Aminopeptidase N. The experiment in a line: Inhibition of APN in human PLC/PRF/5 cells using L-Leu-pnitroanilide as substrate pretreated for 5 mins followed by substrate addition measured after 1 hr. The format is cell-based.
Data set [4] has as its system H22. Kind of data set: Anti-metastatic activity against mouse H22 cells implanted in Kunming mouse assessed as reduction in number of metastatic nodes at 60 mg/kg, ip administered once daily for 12 days measured on day 13 by bouin's staining based assay relative to control. The class given is functional. Also noted: scale not given: the % may be the effect or the level left.

The subject of data set [5] is Thoracic aorta. The experiment in a line: Antiangiogenic activity in Sprague-Dawley rat thoracic aorta ring assessed as reduction in micro-vessel growth at 100 uM supplemented with fresh medium containing compound every 3 for 9 days measured on day 9 by matrigel-based inverted microscopic analysis. The format is functional, tissue-based.
Data set [6] concerns HUVEC. The experiment in a line: Antiangiogenic activity in HUVEC assessed as inhibition of capillary-like tube formation at 100 uM after 4 hrs by matrigel-based assay. The class given is functional, cell-based. The note with it: Homo sapiens.
Data set [7] relates to PC-3. Kind of data set: cells. Particulars: Homo sapiens, PC-3, 48 h.
Data set [8] can be described thus: cells. Particulars: Homo sapiens, ES-2, 48 h.
Description: Antiproliferative activity against human ES2 cells after 48 hrs by MTT assay
For data set [9], the system named is U-937. Kind of data set: cells. Particulars: Homo sapiens, U-937, 48 h.
Description: Antiproliferative activity against human U937 cells after 48 hrs by MTT assay
Data set [10] deals with A549. The experiment in a line: cells. Particulars: Homo sapiens, A549, 48 h.
Data set [11] relates to Mus musculus. The experiment in a line: Toxicity in Kunming mouse implanted with mouse H22 cells assessed as effect on spleen at 60 mg/kg, ip administered once daily for 12 days. Particulars: in vivo, 288 h. The class given is organism-based.
The test system of data set [12] is Mus musculus. The experiment in a line: Toxicity in Kunming mouse implanted with mouse H22 cells assessed as body weight loss at 60 mg/kg, ip administered once daily for 12 days measured every 2 days during compound dosing. The class given is organism-based. Particulars: in vivo.
Data set [13] has as its system Mus musculus. The experiment in a line: Hepatotoxicity in Kunming mouse implanted with mouse H22 cells at 60 mg/kg, ip administered once daily for 12 days. The format is toxicity, organism-based. The note with it: in vivo, 288 h.
The test system of data set [14] is HCT-116. Kind of data set: cells. The note with it: Homo sapiens, HCT-116, 48 h.
Data set [15] relates to MDA-MB-231. Kind of data set: Antiproliferative activity against human MDA-MB-231 cells after 48 hrs by MTT assay. Particulars: MDA-MB-231, 48 h. In general terms: Formazan colour is commonly taken as a measure of viable cells.
The test system of data set [16] is Thoracic aorta. Kind of data set: Antiangiogenic activity in Sprague-Dawley rat thoracic aorta ring assessed as reduction in micro-vessel growth supplemented with fresh medium containing compound every 3 for 9 days measured on day 9 by matrigel-based inverted microscopic analysis. The format is functional, tissue-based.
In data set [17] the test system is K562. The experiment in a line: cells. The note with it: Homo sapiens, K562, 48 h.
Data set [18] deals with PLC. Kind of data set: cells. Particulars: Homo sapiens, 48 h.
Description: Antiproliferative activity against human PLC cells after 48 hrs by MTT assay
Data set [19] relates to HUVEC. The experiment in a line: Antiangiogenic activity in HUVEC assessed as inhibition of capillary-like tube formation after 4 hrs by matrigel-based assay. The format is functional, cell-based. The note with it: Homo sapiens.

Each structure is given as a SMILES string. The source made the active and inactive calls. No cut-off for these calls is given here.

T2 sequence (P15144 whole entry): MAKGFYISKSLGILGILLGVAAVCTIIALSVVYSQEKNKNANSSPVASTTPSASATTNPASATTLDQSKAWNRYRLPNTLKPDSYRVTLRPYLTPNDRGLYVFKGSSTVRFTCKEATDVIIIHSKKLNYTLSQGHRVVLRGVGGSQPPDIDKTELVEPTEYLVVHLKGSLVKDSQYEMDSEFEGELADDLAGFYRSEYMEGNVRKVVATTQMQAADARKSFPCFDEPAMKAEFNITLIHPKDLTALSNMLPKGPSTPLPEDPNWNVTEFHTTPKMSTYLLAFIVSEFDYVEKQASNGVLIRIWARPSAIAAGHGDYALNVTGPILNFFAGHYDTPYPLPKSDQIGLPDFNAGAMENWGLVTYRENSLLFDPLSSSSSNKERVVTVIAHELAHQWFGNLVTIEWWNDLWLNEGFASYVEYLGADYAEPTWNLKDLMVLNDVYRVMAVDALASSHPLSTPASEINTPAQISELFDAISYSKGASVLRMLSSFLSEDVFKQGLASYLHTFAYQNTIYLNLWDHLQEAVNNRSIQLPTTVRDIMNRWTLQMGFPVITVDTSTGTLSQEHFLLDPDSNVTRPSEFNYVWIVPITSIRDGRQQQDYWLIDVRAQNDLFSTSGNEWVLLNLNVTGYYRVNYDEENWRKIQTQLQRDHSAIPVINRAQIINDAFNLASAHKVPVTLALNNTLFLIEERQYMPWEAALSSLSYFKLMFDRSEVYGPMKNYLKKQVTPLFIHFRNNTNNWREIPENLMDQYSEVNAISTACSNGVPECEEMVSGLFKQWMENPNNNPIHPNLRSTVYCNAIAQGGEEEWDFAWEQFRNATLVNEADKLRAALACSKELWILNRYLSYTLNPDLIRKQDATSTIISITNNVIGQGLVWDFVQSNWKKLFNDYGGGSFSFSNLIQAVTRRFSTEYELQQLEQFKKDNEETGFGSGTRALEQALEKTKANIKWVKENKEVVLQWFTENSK

Broadly, the IC50 is the concentration that gives 50% inhibition. Consider `Cc1cccc(C)c1Cn1cc(CNC(=O)N[C@@H](CC(C)C)C(=O)NO)nn1`, for which the half-inhibitory concentration (IC50) in data set [1] is 0.39 µM. The same measure, in the same setting: in the case of `COc1ccc(Cn2cc(CNC(=O)N[C@@H](CC(C)C)C(=O)NO)nn2)cc1` it was 1.9 µM; in that of `COc1cccc(Cn2cc(CNC(=O)N[C@@H](CC(C)C)C(=O)NO)nn2)c1`, 0.91 µM. On the same count and under the same terms, in the case of `CC(C)C[C@H](NC(=O)NCc1cn(Cc2cccc(Br)c2)nn1)C(=O)NO` it was 3.5 µM. The same measure, in the same setting: in the case of `CC(C)C[C@H](NC(=O)NCc1cn(C/C=C/c2ccccc2)nn1)C(=O)NO` it was 2.2 µM. Take `CC(C)C[C@H](NC(=O)NCc1cn(Cc2ccc(Br)cc2)nn1)C(=O)NO`: the concentration for half-maximal inhibition (IC50) in data set [1] stood at 7.8 µM. Turning to `COc1ccccc1Cn1cc(CNC(=O)N[C@@H](CC(C)C)C(=O)NO)nn1`, the concentration for half-maximal inhibition (IC50) in data set [2] was determined as 6.5 µM; in data set [1], 0.65 µM; in data set [3] it was 15.3 µM. The matching figures for `COc1ccccc1C(C)n1cc(CNC(=O)N[C@@H](CC(C)C)C(=O)NO)nn1` (stereo partly drawn): 4.8 µM, 0.55 µM and 12.3 µM.

Turning to `CC(C)C[C@H](NC(=O)NCc1cn(Cc2cccnc2)nn1)C(=O)NO`, the IC50 in data set [1] is 2.2 µM. On the same count and under the same terms, in the case of `O=C(NCc1cn(Cc2ccc(Cl)cc2)nn1)N[C@H](C(=O)NO)c1ccccc1` it was 11.3 µM. With `CC(C)C[C@H](NC(=O)[C@@H](O)[C@H](N)Cc1ccccc1)C(=O)O` [UBENIMEX], in data set [4], the Activity is listed as 64%. Besides, the result in data set [5] was Active. The inhibition entry in data set [6] is “Active”.

For `CC(C)C[C@H](NC(=O)NCc1cn(Cc2ccccc2Br)nn1)C(=O)NO`, the IC50 in data set [1] was determined as 0.88 µM. In the case of `CC(C)C[C@H](NC(=O)NCc1cn(Cc2ccccc2OCc2ccccc2)nn1)C(=O)NO`, the half-maximal inhibitory concentration (IC50) came to 119 µM in data set [7]; 0.74 µM in data set [2]; 0.089 µM in [1]; 105 µM in [8]; 68.4 µM in [9]; 90 µM in data set [10]. For the same molecule, the IC50 in data set [14] stood at 81.2 µM; in data set [15] it was 72.5 µM; in [17] it was 85 µM; in [18], 92.8 µM; in data set [3], 1.3 µM. Further, the Activity entry is “Non-Toxic” in [11]; 71% in data set [4]; “Non-Toxic” in data set [12]; “Non-Toxic” in data set [13]; “Dose-dependent effect” in [16]. Also, in data set [19], the inhibition result is “Dose-dependent effect”. Take `CC(C)C[C@H](NC(=O)NCc1cn(Cc2cccc([N+](=O)[O-])c2)nn1)C(=O)NO`: in [1], the IC50 is 1.7 µM. In the case of `CC(C)C[C@H](NC(=O)NCc1cn(Cc2ccc([N+](=O)[O-])cc2)nn1)C(=O)NO`, the IC50 in [1] is 1 µM. The same measure, in the same setting: with `COc1cc(Cn2cc(CNC(=O)N[C@@H](CC(C)C)C(=O)NO)nn2)cc(OC)c1OC` the figure was 1.4 µM; with `CC(C)C[C@H](NC(=O)NCc1cn(Cc2cccc(Cl)c2)nn1)C(=O)NO`, 3.1 µM. For `CCOc1ccc(Cn2cc(CNC(=O)N[C@@H](CC(C)C)C(=O)NO)nn2)cc1`, the 50% inhibitory concentration (IC50) in data set [1] came to 1.5 µM.

Take `CC(C)C[C@H](NC(=O)NCc1cn(Cc2ccccc2)nn1)C(=O)NO`: in data set [1], the IC50 came to 2.1 µM. On the same count and under the same terms, with `CC(C)C[C@H](NC(=O)NCc1cn(Cc2ccccc2[N+](=O)[O-])nn1)C(=O)NO` the figure was 3.4 µM; with `CC(C)C[C@H](NC(=O)NCc1cn(C(C)c2ccccc2)nn1)C(=O)NO` (stereo partly drawn), 1.9 µM. Still for that read-out and setting: with `CC(C)C[C@H](NC(=O)NCc1cn(Cc2ccccc2Cl)nn1)C(=O)NO` the figure was 0.67 µM. Take `CC(C)C[C@H](NC(=O)NCc1cn(Cc2cccc(OCc3ccccc3)c2)nn1)C(=O)NO`: the IC50 in data set [7] was 123 µM; in data set [2], 0.87 µM; in data set [1], 0.24 µM; in data set [8] it was 108 µM; in data set [9], 70.3 µM; in [10], 128 µM. Further, the concentration for half-maximal inhibition (IC50) in data set [14] amounted to 130 µM; in [15], 72.6 µM; in [17] it was 99.8 µM; in data set [18], 112 µM; in data set [3], 4.9 µM. As to `CCOc1cccc(Cn2cc(CNC(=O)N[C@@H](CC(C)C)C(=O)NO)nn2)c1`, in [1], the IC50 amounted to 0.82 µM. In the case of `Cc1cccc(Cn2cc(CNC(=O)N[C@@H](CC(C)C)C(=O)NO)nn2)c1`, in data set [1], the concentration for half-maximal inhibition (IC50) is 2.2 µM. Same read-out and setting: in the case of `CC(C)C[C@H](NC(=O)NCc1cn(Cc2ccc(C#N)cc2)nn1)C(=O)NO` it was 1.4 µM; in that of `CC(C)C[C@H](NC(=O)NCc1cn(CCc2ccccc2)nn1)C(=O)NO`, 3.6 µM; in that of `Cc1ccc(Cn2cc(CNC(=O)N[C@@H](CC(C)C)C(=O)NO)nn2)cc1`, 3.6 µM. Same read-out and setting: with `COc1cccc(OC)c1Cn1cc(CNC(=O)N[C@@H](CC(C)C)C(=O)NO)nn1` the figure was 0.47 µM; with `CC(C)C[C@H](NC(=O)NCc1cn(C(c2ccccc2)c2ccccc2)nn1)C(=O)NO`, 2.3 µM. Regarding `CCOc1ccccc1Cn1cc(CNC(=O)N[C@@H](CC(C)C)C(=O)NO)nn1`, the half-maximal inhibitory concentration (IC50) amounted to 2.1 µM in [2], 0.44 µM in data set [1] and 5 µM in data set [3]. On to `CC(C)C[C@H](NC(=O)NCc1cn(Cc2ccccc2N)nn1)C(=O)NO`, for which the IC50 in data set [1] was 0.68 µM. Still for that read-out and setting: with `CC(C)C[C@H](NC(=O)NCc1cn(Cc2cccc(C#N)c2)nn1)C(=O)NO` the figure was 7.8 µM; with `CC[C@@H](C)[C@H](NC(=O)NCc1cn(Cc2ccccc2)nn1)C(=O)NO`, 13.6 µM; with `CC(C)C[C@H](NC(=O)NCc1cn(Cc2ccc(Cl)cc2)nn1)C(=O)NO`, 6.9 µM. Same read-out and setting: with `CC(C)C[C@H](NC(=O)NCc1cn(Cc2cccc3ccccc23)nn1)C(=O)NO` the figure was 1.4 µM.

Regarding `CC(C)C[C@H](NC(=O)NCc1cn(Cc2ccc(Cl)c(Cl)c2)nn1)C(=O)NO`, the IC50 in data set [1] came out at 5.5 µM. The same measure, in the same setting: with `CC(C)C[C@H](NC(=O)NCc1cn(Cc2ccc3ccccc3c2)nn1)C(=O)NO` the figure was 3.9 µM; with `CC(C)C[C@H](NC(=O)NCc1cn(Cc2c(Cl)cccc2Cl)nn1)C(=O)NO`, 0.58 µM. Consider `Cc1ccccc1Cn1cc(CNC(=O)N[C@@H](CC(C)C)C(=O)NO)nn1`, for which the concentration for half-maximal inhibition (IC50) is 6.9 µM in data set [2], 0.76 µM in [1] and 20.6 µM in data set [3]. For the molecule `CC(C)C[C@H](NC(=O)NCc1cn(Cc2cccc(N)c2)nn1)C(=O)NO`, the half-inhibitory concentration (IC50) in [1] worked out at 3.7 µM.

In the case of `COc1ccc(Cn2cc(CNC(=O)N[C@@H](CC(C)C)C(=O)NO)nn2)cc1OC`, the IC50 in data set [1] worked out at 2.6 µM.
